Tests used:
[1] = target: T1, PDE3A catalytic domain (PDE3Acat) (Homo sapiens, UniProt Q14432); test: Phosphodiesterase inhibitory activity, PDE3 ([3H]cAMP, recombinant enzyme); format: biochemical; settings: 30° C., 20 minutes, read-out: IC50(μmol/L) PDE3
T1 construct: made in house; host or cells: Sf9 insect cells (baculovirus, Bac-to-Bac / Gateway)

PDE4Bcat = target: T2, PDE4Bcat (Homo sapiens, UniProt Q07343); test: Phosphodiesterase inhibitory activity, PDE4 ([3H]cAMP, recombinant enzyme); format: biochemical; settings: 30° C., 20 minutes, read-out: IC50(μmol/L) PDE4
T2 construct: made in house; host or cells: Sf9 insect cells (baculovirus, Bac-to-Bac / Gateway)
T2 sequence (Q07343 330-659 limits assumed): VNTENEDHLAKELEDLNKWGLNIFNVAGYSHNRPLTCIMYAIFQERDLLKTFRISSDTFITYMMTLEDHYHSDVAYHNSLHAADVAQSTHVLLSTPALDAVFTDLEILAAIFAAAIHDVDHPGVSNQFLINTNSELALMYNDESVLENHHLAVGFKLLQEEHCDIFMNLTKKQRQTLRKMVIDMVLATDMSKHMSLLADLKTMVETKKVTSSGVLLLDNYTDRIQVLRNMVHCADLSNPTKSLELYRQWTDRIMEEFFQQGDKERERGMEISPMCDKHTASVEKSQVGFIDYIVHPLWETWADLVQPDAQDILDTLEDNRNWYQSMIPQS

[2] = system: LPS acute inflammation model in rats; test: LPS acute inflammation model in rats (total leukocytes in BALF); format: in vivo; settings: Rattus norvegicus, Leukocyte, po, 3 h, 1 mg/kg orally one hour before LPS inhalation, BALF 3 hours after LPS, read-out: Inhibition rate (total number of leukocytes in BALF)
Protocol: 1 mg/kg of the compound was orally administered to rat one hour before inhalation of a lipopolysaccharide from E. coli serotype 055:B5 (LPS), and the rat was made to inhale 50 mL of the LPS solution nebulized using a nebulizer for 30 minutes. Then, 3 hours after the LPS inhalation, the rat was euthanized with 20% urethane (5 ml/rat, i.p.). 5 ml of physiological saline for bronchoalveolar lavage was injected into the bronchial tubes and alveoli through the airway, and the bronchial tubes and alveoli were washed three times using a 5 mL syringe. This operation was repeated twice, and the solution was collected as bronchoalveolar lavage fluid (BALF). The collected BALF was centrifuged at 1200 rpm and 4° C. for 10 minutes (Hirtachi; himac CR 5 DL). The pellet was re-suspended in 10 mL of a 0.1% bovine serum albumin-physiological saline, and an equivalent amount of Turk's solution was added thereto to stain leukocytes. The total number of leukocytes was counted under a microscope to calculate the inhibition rate. Further, the indications were as follows: inhibition rate≧90% (++) and 90%>inhibition rate≧50% (+). [ ] means the results of the drug administration after fasting overnight.

[3] = system: histamine-induced bronchoconstriction in guinea pigs; test: Histamine-induced bronchoconstriction reaction in guinea pigs; format: in vivo; settings: Cavia porcellus, iv, 0.5 min, guinea pig, measured 30 seconds after administration, read-out: Inhibition rate (histamine-induced bronchoconstriction); for inhibition in vivo at 0.3 mg/kg: compound 0.3 mg/kg, i.v.; for inhibition in vivo at 0.1 mg/kg: compound 0.1 mg/kg, i.v. (values in [ ])
Protocol: Guinea pigs were anesthetized with pentobarbital (30 mg/kg, i.p.). A cannula for intravenous administration was inserted into the left external jugular vein, a cannula for collecting blood and measuring blood pressure was inserted into the right internal carotid artery, and a tracheal cannula was inserted into the trachea. The guinea pigs were maintained on artificial respiration under the conditions of 60 times/min and 10 mL/kg/stroke. The airflow from the side branch of the tracheal cannula was measured by a bronchospasm transducer (Ugo-Basile) and recorded on a computer via Power Lab (ADInstruments Japan). The guinea pigs were immobilized with gallamine (10 mg/kg, i.v.), and histamine (12.5 μg/kg, i.v.) was administered at 10-minute intervals. After the histamine-induced bronchoconstriction became stable, the compound (0.3 mg/kg, i.v.) was administered. The histamine-induced bronchoconstriction reaction was measured 30 seconds after the compound administration to examine the bronchoconstriction inhibitory activity of the compound. The bronchoconstriction was recorded as the airflow value, and the results were represented by the ratio of the maximum value of the histamine- induced airflow 30 seconds after the administration to the maximum value of the airflow before the administration. Also, the test compounds dissolved in DMSO were used. Further, the indications were as follows: inhibition rate≧90% (+++), 90%>inhibition rate≧80% (++), and 80%>inhibition rate≧70% (+). [ ] means the results in the case of 0.1 mg/kg, i.v.

T1 sequence (Q14432 674-1093 limits assumed): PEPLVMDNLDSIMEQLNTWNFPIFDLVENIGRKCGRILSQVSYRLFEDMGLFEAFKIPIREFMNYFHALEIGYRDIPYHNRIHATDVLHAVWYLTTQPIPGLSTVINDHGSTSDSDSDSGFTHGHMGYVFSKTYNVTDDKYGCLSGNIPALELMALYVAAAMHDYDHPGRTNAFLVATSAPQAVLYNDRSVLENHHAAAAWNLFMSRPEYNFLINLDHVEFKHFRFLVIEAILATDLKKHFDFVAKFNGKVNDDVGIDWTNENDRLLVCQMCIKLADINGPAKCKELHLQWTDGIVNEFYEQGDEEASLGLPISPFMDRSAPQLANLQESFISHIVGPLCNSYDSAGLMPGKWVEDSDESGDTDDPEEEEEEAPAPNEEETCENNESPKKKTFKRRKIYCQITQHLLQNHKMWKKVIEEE

SMILES | IC50 [1] [µmol/L] | IC50 (PDE4Bcat) [µmol/L] | inhibition in vivo at 1 mg/kg [2] [%] | inhibition in vivo at 0.3 mg/kg [3] [%] | inhibition in vivo at 0.1 mg/kg [3] [%]
CCc1ccc2c(C3=NN(CCCCOc4ccc(C5=NNC(=O)CC5C)cc4)C(=O)CC3C)ccc(OC)c2n1 (single isomer, unassigned) [Example 339, 6-(2-Ethyl-8-methoxyquinolin-5-yl)-5-methyl-2-[4-[4-(4-methyl-6-oxo-1,4,5,6-tetrahydropyridazin-3-yl)phenoxy]butyl]-4,5-dihydro-2H-pyridazin-3-one] | 1 to 10 | < 0.1 | 50 to 90 |  | 
CCc1ccc2c(-c3ccc(=O)n(CCCCOc4ccc(C5=NNC(=O)C5(C)C)c(F)c4F)n3)ccc(OC)c2n1 [Example 290, 6-(2-Ethyl-8-methoxyquinolin-5-yl)-2-[4-[2,3-difluoro-4-(4,4-dimethyl-5-oxo-4,5-dihydro-1H-pyrazol-3-yl)phenoxy]butyl]-2H-pyridazin-3-one] | < 0.1 | < 0.1 |  | ≥ 90 | 
CCc1ccc2c(-c3ccc(=O)n(CCCCOc4ccc(C5=NNC(=O)CC5)cc4OC)n3)ccc(OC)c2n1 [Example 291, 6-(2-Ethyl-8-methoxyquinolin-5-yl)-2-[4-[2-methoxy-4-(6-oxo-1,4,5,6-tetrahydropyridazin-3-yl)phenoxy]butyl]-2H-pyridazin-3-one] | 1 to 10 | 0.1 to 1 |  | 70 to 80 | 
CCc1ccc2c(C3=NN(CCCOc4ccc(C5=NNC(=O)CC5C)cc4)C(=O)CC3C)ccc(OC)c2n1 (stereo not drawn) [Example 292] | 1 to 10 | 0.1 to 1 |  | 80 to 90 | 
CCc1ccc2c(C3=NN(CCCCOc4ccc(C5=NNC(=O)CC5C)cc4OC)C(=O)CC3C)ccc(OC)c2n1 (stereo not drawn) [Example 293, 6-(2-Ethyl-8-methoxyquinolin-5-yl)-5-methyl-2-[4-[2-methoxy-4-(4-methyl-6-oxo-1,4,5,6-tetrahydropyridazin-3-yl)phenoxy]butyl]-4,5-dihydro-2H-pyridazin-3-one] | 0.1 to 1 | 0.1 to 1 |  |  | 70 to 80
CCc1ccc2c(C3=NN(CCCCOc4ccc(C5=NNC(=O)CC5C)cc4F)C(=O)CC3C)ccc(OC)c2n1 (stereo not drawn) [Example 294, 6-(2-Ethyl-8-methoxyquinolin-5-yl)-5-methyl-2-[4-[2-fluoro-4-(4-methyl-6-oxo-1,4,5,6-tetrahydropyridazin-3-yl)phenoxy]butyl]-4,5-dihydro-2H-pyridazin-3-one] | < 0.1 | < 0.1 |  |  | ≥ 90
CCc1ccc2c(C3=NN(CCCCOc4ccc(C5=NNC(=O)CC5C)c(F)c4F)C(=O)CC3C)ccc(OC)c2n1 (stereo not drawn) [Example 295, 6-(2-Ethyl-8-methoxyquinolin-5-yl)-5-methyl-2-[4-[2,3-difluoro-4-(4-methyl-6-oxo-1,4,5,6-tetrahydropyridazin-3-yl)phenoxy]butyl]-4,5-dihydro-2H-pyridazin-3-one] | < 0.1 | < 0.1 |  |  | 80 to 90
CCc1ccc2c(C3=NN(CCCCOc4ccc(C5=NNC(=O)CC5)cc4)C(=O)CC3C)ccc(OC)c2n1 (stereo not drawn) [Example 296, 6-(2-Ethyl-8-methoxyquinolin-5-yl)-5-methyl-2-[4-[4-(6-oxo-1,4,5,6-tetrahydropyridazin-3-yl)phenoxy]butyl]-4,5-dihydro-2H-pyridazin-3-one] | 1 to 10 | < 0.1 |  |  | 80 to 90
CCc1ccc2c(C3=NN(CCCCOc4ccc(C5=NNC(=O)CC5)cc4OC)C(=O)CC3C)ccc(OC)c2n1 (stereo not drawn) [Example 297, 6-(2-Ethyl-8-methoxyquinolin-5-yl)-5-methyl-2-[4-[2-methoxy-4-(6-oxo-1,4,5,6-tetrahydropyridazin-3-yl)phenoxy]butyl]-4,5-dihydro-2H-pyridazin-3-one] | 1 to 10 | 0.1 to 1 |  | ≥ 90 | 
CCc1ccc2c(C3=NN(CCCCOc4ccc(C5=NNC(=O)CC5)cc4F)C(=O)CC3C)ccc(OC)c2n1 (stereo not drawn) [Example 298, 6-(2-Ethyl-8-methoxyquinolin-5-yl)-5-methyl-2-[4-[2-fluoro-4-(6-oxo-1,4,5,6-tetrahydropyridazin-3-yl)phenoxy]butyl]-4,5-dihydro-2H-pyridazin-3-one] | < 0.1 | < 0.1 |  |  | ≥ 90
CCc1ccc2c(C3=NN(CCCCOc4ccc(C5=NNC(=O)C5(C)C)cc4)C(=O)CC3C)ccc(OC)c2n1 (stereo not drawn) [Example 300, 6-(2-Ethyl-8-methoxyquinolin-5-yl)-5-methyl-2-[4-[4-(4,4-dimethyl-5-oxo-4,5-dihydro-1H-pyrazol-3-yl)phenoxy]butyl]-4,5-dihydro-2H-pyridazin-3-one] | 1 to 10 | < 0.1 |  | 70 to 80 | 
CCc1ccc2c(C3=NN(CCCCOc4ccc(C5=NNC(=O)C5(C)C)cc4OC)C(=O)CC3C)ccc(OC)c2n1 (stereo not drawn) [Example 301, 6-(2-Ethyl-8-methoxyquinolin-5-yl)-5-methyl-2-[4-[2-methoxy-4-(4,4-dimethyl-5-oxo-4,5-dihydro-1H-pyrazol-3-yl)phenoxy]butyl]-4,5-dihydro-2H-pyridazin-3-one] | ≥ 10 | 0.1 to 1 |  | 80 to 90 | 
CCc1ccc2c(C3=NN(CCCCOc4ccc(C5=NNC(=O)C5(C)C)c(F)c4F)C(=O)CC3C)ccc(OC)c2n1 (stereo not drawn) [Example 303, 6-(2-Ethyl-8-methoxyquinolin-5-yl)-5-methyl-2-[4-[2,3-difluoro-4-(4,4-dimethyl-5-oxo-4,5-dihydro-1H-pyrazol-3-yl)phenoxy]butyl]-4,5-dihydro-2H-pyridazin-3-one] | 0.1 to 1 | < 0.1 |  | 80 to 90 | 
COc1ccc(-c2ccc(=O)n(CCCCOc3ccc(C4=NNC(=O)CC4C)c(F)c3F)n2)c2nc(C(F)(F)F)nn12 (stereo not drawn) [Example 304, 2-[4-[2,3-Difluoro-4-(4-methyl-6-oxo-1,4,5,6-tetrahydropyridazin-3-yl)phenoxy]butyl]-6-(5-methoxy-2-trifluoromethyl-[1,2,4]triazolo [1,5-a]pyridin-8-yl)-2H-pyridazin-3-one] | < 0.1 | 1 to 10 |  | ≥ 90 | 
COc1ccc(-c2ccc(=O)n(CCCCOc3ccc(C4=NNC(=O)CC4)c(F)c3F)n2)c2nc(C(F)(F)F)nn12 [Example 305, 2-[4-[2,3-Difluoro-4-(6-oxo-1,4,5,6-tetrahydropyridazin-3-yl)phenoxy]butyl]-6-(5-methoxy-2-trifluoromethyl-[1,2,4]triazolo[1,5-a]pyridin-8-yl)-2H-pyridazin-3-one] | 0.1 to 1 | 1 to 10 |  | ≥ 90 | 
CCc1ccc2c(C3=NN(CCOc4ccc(C5=NNC(=O)CC5C)cc4)C(=O)CC3C)ccc(OC)c2n1 (stereo not drawn) [Example 315, 6-(2-Ethyl-8-methoxyquinolin-5-yl)-5-methyl-2-[2-[4-(4-methyl-6-oxo-1,4,5,6-tetrahydropyridazin-3-yl)phenoxy]ethyl]-4,5-dihydro-2H-pyridazin-3-one] | 1 to 10 | < 0.1 |  | 70 to 80 | 
COc1ccc(C2=NN(CCCCOc3ccc(C4=NNC(=O)CC4C)cc3)C(=O)CC2C)c2cccnc12 (stereo not drawn) [Example 316, 6-(8-Methoxyquinolin-5-yl)-5-methyl-2-[4-[4-(4-methyl-6-oxo-1,4,5,6-tetrahydropyridazin-3-yl)phenoxy]butyl]-4,5-dihydro-2H-pyridazin-3-one] | < 0.1 | 0.1 to 1 |  |  | ≥ 90
COc1ccc(-c2ccc(=O)n(CCCCOc3ccc(C4=NNC(=O)CC4C)cc3)n2)c2cccnc12 (stereo not drawn) [Example 318, 6-(8-Methoxyquinolin-5-yl)-2-[4-[4-(4-methyl-6-oxo-1,4,5,6-tetrahydropyridazin-3-yl)phenoxy]butyl]-2H-pyridazin-3-one] | < 0.1 | 0.1 to 1 |  | ≥ 90 | 

Reference: patent US20100160335A1, “PYRIDAZINONE DERIVATIVE AND PDE INHIBITOR CONTAINING THE SAME AS ACTIVE INGREDIENT” (KYORIN PHARMACEUTICAL CO., LTD., priority 2007, published 2010)
